ChEMBL document CHEMBL4251611, “The synthesis, antifungal and apoptotic effects of triazole-oxadiazoles against Candida species” (Eur J Med Chem, 2018)
Converted amounts (≈) assume the structure as drawn.

What was measured:
Candida albicans [1] = experiment: Antifungal activity against Candida albicans ATCC 90028 by broth microdilution assay; format: functional
Nakaseomyces glabratus [2] = experiment: Antifungal activity against Candida glabrata ATCC 90030 by broth microdilution assay; format: functional
Pichia kudriavzevii [3] = experiment: Antifungal activity against Candida krusei ATCC 6258 by broth microdilution assay; format: functional
Candida parapsilosis [4] = experiment: Antifungal activity against Candida parapsilosis ATCC 22019 by broth microdilution assay; format: functional; conditions: Lodderomyces parapsilosis
NIH3T3 = experiment: Cytotoxicity against mouse NIH/3T3 cells assessed as reduction in cell viability after 24 hrs by MTT assay; format: cell-based; conditions: NIH3T3, 24 h
Candida albicans [5] = experiment: Induction of apoptosis in Candida albicans ATCC 90028 assessed as live cells at antifungal MIC90 after 24 hrs by Annexin V/propidium iodide staining based flow cytometry (reference value: 99.8%); format: functional
Candida albicans [6] = experiment: Induction of apoptosis in Candida albicans ATCC 90028 assessed as early apoptotic cells at antifungal MIC90 after 24 hrs by Annexin V/propidium iodide staining based flow cytometry (reference value: 0%); format: functional
Candida albicans [7] = experiment: Induction of apoptosis in Candida albicans ATCC 90028 assessed as late apoptotic cells at antifungal MIC90 after 24 hrs by Annexin V/propidium iodide staining based flow cytometry (reference value: 0%); format: functional
Candida albicans [8] = experiment: Induction of apoptosis in Candida albicans ATCC 90028 assessed as necrotic cells at antifungal MIC90 after 24 hrs by Annexin V/propidium iodide staining based flow cytometry (reference value: 0.2%); format: functional
Nakaseomyces glabratus [9] = experiment: Induction of apoptosis in Candida glabrata ATCC 90030 assessed as live cells at antifungal MIC90 after 24 hrs by Annexin V/propidium iodide staining based flow cytometry (reference value: 99.5%); format: functional
Nakaseomyces glabratus [10] = experiment: Induction of apoptosis in Candida glabrata ATCC 90030 assessed as early apoptotic cells at antifungal MIC90 after 24 hrs by Annexin V/propidium iodide staining based flow cytometry (reference value: 0%); format: functional
Nakaseomyces glabratus [11] = experiment: Induction of apoptosis in Candida glabrata ATCC 90030 assessed as late apoptotic cells at antifungal MIC90 after 24 hrs by Annexin V/propidium iodide staining based flow cytometry (reference value: 0.2%); format: functional
Nakaseomyces glabratus [12] = experiment: Induction of apoptosis in Candida glabrata ATCC 90030 assessed as necrotic cells at antifungal MIC90 after 24 hrs by Annexin V/propidium iodide staining based flow cytometry (reference value: 0.3%); format: functional
Pichia kudriavzevii [13] = experiment: Induction of apoptosis in Candida krusei ATCC 6258 assessed as live cells at antifungal MIC90 after 24 hrs by Annexin V/propidium iodide staining based flow cytometry (reference value: 97.3%); format: functional
Pichia kudriavzevii [14] = experiment: Induction of apoptosis in Candida krusei ATCC 6258 assessed as early apoptotic cells at antifungal MIC90 after 24 hrs by Annexin V/propidium iodide staining based flow cytometry (reference value: 0.5%); format: functional
Pichia kudriavzevii [15] = experiment: Induction of apoptosis in Candida krusei ATCC 6258 assessed as late apoptotic cells at antifungal MIC90 after 24 hrs by Annexin V/propidium iodide staining based flow cytometry (reference value: 1.4%); format: functional
Pichia kudriavzevii [16] = experiment: Induction of apoptosis in Candida krusei ATCC 6258 assessed as necrotic cells at antifungal MIC90 after 24 hrs by Annexin V/propidium iodide staining based flow cytometry (reference value: 0.9%); format: functional
Candida parapsilosis [17] = experiment: Induction of apoptosis in Candida parapsilosis ATCC 22019 assessed as live cells at antifungal MIC90 after 24 hrs by Annexin V/propidium iodide staining based flow cytometry (reference value: 97.6%); format: functional
Candida parapsilosis [18] = experiment: Induction of apoptosis in Candida parapsilosis ATCC 22019 assessed as early apoptotic cells at antifungal MIC90 after 24 hrs by Annexin V/propidium iodide staining based flow cytometry (reference value: 0.1%); format: functional
Candida parapsilosis [19] = experiment: Induction of apoptosis in Candida parapsilosis ATCC 22019 assessed as late apoptotic cells at antifungal MIC90 after 24 hrs by Annexin V/propidium iodide staining based flow cytometry (reference value: 0.9%); format: functional
Candida parapsilosis [20] = experiment: Induction of apoptosis in Candida parapsilosis ATCC 22019 assessed as necrotic cells at antifungal MIC90 after 24 hrs by Annexin V/propidium iodide staining based flow cytometry (reference value: 1.4%); format: functional
Candida albicans [21] = experiment: Induction of apoptosis in Candida albicans ATCC 90028 assessed as increase in late apoptotic cells at antifungal MIC90 by Annexin V/propidium iodide staining based flow cytometry; format: functional, organism-based; conditions: TDE = time-dependent effect
Nakaseomyces glabratus [22] = experiment: Induction of apoptosis in Candida glabrata ATCC 90030 assessed as increase in late apoptotic cells at antifungal MIC90 by Annexin V/propidium iodide staining based flow cytometry; format: functional, organism-based; conditions: TDE = time-dependent effect
Pichia kudriavzevii [23] = experiment: Induction of apoptosis in Candida krusei ATCC 6258 assessed as increase in late apoptotic cells at antifungal MIC90 by Annexin V/propidium iodide staining based flow cytometry; format: functional, organism-based; conditions: TDE = time-dependent effect
Candida parapsilosis [24] = experiment: Induction of apoptosis in Candida parapsilosis ATCC 22019 assessed as increase in late apoptotic cells at antifungal MIC90 by Annexin V/propidium iodide staining based flow cytometry; format: functional, organism-based; conditions: TDE = time-dependent effect

Row | MIC90 (Candida albicans [1]) [µg/mL] | MIC90 (Nakaseomyces glabratus [2]) [µg/mL] | MIC90 (Pichia kudriavzevii [3]) [µg/mL] | MIC90 (Candida parapsilosis [4]) [µg/mL] | Compound | IC50 (NIH3T3) [µg/mL] | Activity (Candida albicans [5]) [%] | Activity (Candida albicans [6]) [%] | Activity (Candida albicans [7]) [%] | Activity (Candida albicans [8]) [%] | Activity (Nakaseomyces glabratus [9]) [%] | Activity (Nakaseomyces glabratus [10]) [%] | Activity (Nakaseomyces glabratus [11]) [%] | Activity (Nakaseomyces glabratus [12]) [%] | Activity (Pichia kudriavzevii [13]) [%] | Activity (Pichia kudriavzevii [14]) [%] | Activity (Pichia kudriavzevii [15]) [%] | Activity (Pichia kudriavzevii [16]) [%] | Activity (Candida parapsilosis [17]) [%] | Activity (Candida parapsilosis [18]) [%] | Activity (Candida parapsilosis [19]) [%] | further results
1 | 250 (≈ 634 µM) | 250 (≈ 634 µM) | 500 (≈ 1270 µM) | 500 (≈ 1270 µM) | Cn1cnnc1SCCc1nnc(SCC(=O)Nc2ccc(F)cc2)o1 | > 500 |  |  |  |  |  |  |  |  |  |  |  |  |  |  |  | 
2 | 250 (≈ 608 µM) | 250 (≈ 608 µM) | 500 (≈ 1220 µM) | 500 (≈ 1220 µM) | Cn1cnnc1SCCc1nnc(SCC(=O)Nc2ccc(Cl)cc2)o1 | > 500 |  |  |  |  |  |  |  |  |  |  |  |  |  |  |  | 
3 | 125 (≈ 270 µM) | 500 (≈ 1080 µM) | 500 (≈ 1080 µM) | 62.5 (≈ 135 µM) | COc1ccc2nc(NC(=O)CSc3nnc(CCSc4nncn4C)o3)sc2c1 | 485 (≈ 1050 µM) |  |  |  |  |  |  |  |  |  |  |  |  |  |  |  | 
4 | 31.2 (≈ 90.6 µM) | 62.5 (≈ 181 µM) | 1.56 (≈ 4.54 µM) | 1.56 (≈ 4.54 µM) | Clc1ccccc1C(c1ccccc1)(c1ccccc1)n1ccnc1 [CLOTRIMAZOLE] | 289 (≈ 839 µM) | 56.7 | 0.6 | 3.1 | 39.7 | 46.3 | 0.3 | 2.7 | 50.7 | 32.6 | 0.6 | 12.4 | 54.3 | 50.7 | 0.8 | 6.4 | Activity (Candida parapsilosis [20]): 42.2%
5 | 125 (≈ 261 µM) | 500 (≈ 1040 µM) | 500 (≈ 1040 µM) | 62.5 (≈ 131 µM) | Cn1cnnc1SCCc1nnc(SCC(=O)Nc2nc3ccc([N+](=O)[O-])cc3s2)o1 | > 500 |  |  |  |  |  |  |  |  |  |  |  |  |  |  |  | 
6 | 125 (≈ 267 µM) | 500 (≈ 1070 µM) | 500 (≈ 1070 µM) | 62.5 (≈ 134 µM) | Cn1cnnc1SCCc1nnc(SCC(=O)Nc2nc3ccc(Cl)cc3s2)o1 | 422 (≈ 902 µM) |  |  |  |  |  |  |  |  |  |  |  |  |  |  |  | 
7 | 62.5 (≈ 148 µM) | 62.5 (≈ 148 µM) | 125 (≈ 297 µM) | 125 (≈ 297 µM) | Cn1cnnc1SCCc1nnc(SCC(=O)Nc2ccc([N+](=O)[O-])cc2)o1 | > 500 | 79.1 | 0.4 | 13.5 | 7 | 78.7 | 0.4 | 1.8 | 19.1 | 70.5 | 0.3 | 3.4 | 25.9 | 93.4 | 0.3 | 4.2 | Activity (Candida parapsilosis [20]): 4.2%
8 | 125 (≈ 288 µM) | 250 (≈ 577 µM) | 250 (≈ 577 µM) | 250 (≈ 577 µM) | Cn1cnnc1SCCc1nnc(SCC(=O)Nc2nc3ccccc3s2)o1 | > 500 |  |  |  |  |  |  |  |  |  |  |  |  |  |  |  | 
9 | 250 (≈ 664 µM) | 250 (≈ 664 µM) | 500 (≈ 1330 µM) | 500 (≈ 1330 µM) | Cn1cnnc1SCCc1nnc(SCC(=O)Nc2ccccc2)o1 | > 500 |  |  |  |  |  |  |  |  |  |  |  |  |  |  |  | 
10 | 250 (≈ 615 µM) | 250 (≈ 615 µM) | 500 (≈ 1230 µM) | 500 (≈ 1230 µM) | COc1ccc(NC(=O)CSc2nnc(CCSc3nncn3C)o2)cc1 | > 500 |  |  |  |  |  |  |  |  |  |  |  |  |  |  |  | 
11 | 62.5 (≈ 138 µM) | 62.5 (≈ 138 µM) | 62.5 (≈ 138 µM) | 62.5 (≈ 138 µM) | Cn1cnnc1SCCc1nnc(SCC(=O)Nc2nc3ccc(F)cc3s2)o1 | > 500 | 46.9 | 0.1 | 39.5 | 13.5 | 46.4 | 0.1 | 36.6 | 17 | 30.2 | 0 | 42.3 | 27.5 | 40.5 | 0.1 | 41.7 | Activity (Candida parapsilosis [20]): 17.7%; Activity (Candida albicans [21]): Tde; Activity (Nakaseomyces glabratus [22]): Tde; Activity (Pichia kudriavzevii [23]): Tde; Activity (Candida parapsilosis [24]): Tde

Row | Compound | MIC90 (Candida albicans [1]) [µg/mL] | MIC90 (Nakaseomyces glabratus [2]) [µg/mL] | MIC90 (Pichia kudriavzevii [3]) [µg/mL] | MIC90 (Candida parapsilosis [4]) [µg/mL] | IC50 (NIH3T3) [µg/mL] | Activity (Candida albicans [5]) [%] | Activity (Candida albicans [6]) [%] | Activity (Candida albicans [7]) [%] | Activity (Candida albicans [8]) [%] | Activity (Nakaseomyces glabratus [9]) [%] | Activity (Nakaseomyces glabratus [10]) [%] | Activity (Nakaseomyces glabratus [11]) [%] | Activity (Nakaseomyces glabratus [12]) [%] | Activity (Pichia kudriavzevii [13]) [%] | Activity (Pichia kudriavzevii [14]) [%] | Activity (Pichia kudriavzevii [15]) [%] | Activity (Pichia kudriavzevii [16]) [%] | Activity (Candida parapsilosis [17]) [%] | Activity (Candida parapsilosis [18]) [%] | Activity (Candida parapsilosis [19]) [%] | further results
12 | CC(=O)N1CCN(c2ccc(OCC3COC(Cn4ccnc4)(c4ccc(Cl)cc4Cl)O3)cc2)CC1 (stereo not drawn) [KETOCONAZOLE] | 62.5 (≈ 118 µM) | 62.5 (≈ 118 µM) | 1.56 (≈ 2.94 µM) | 1.56 (≈ 2.94 µM) | 396 (≈ 745 µM) | 35.3 | 1.1 | 11.2 | 52.4 | 23.7 | 0.1 | 4.1 | 72 | 23.8 | 0.3 | 8.3 | 67.7 | 27 | 0.5 | 15.2 | Activity (Candida parapsilosis [20]): 57.3%
